Here are results for 11 molecules from patent publication EP0472220A1, “Bradykinin antagonists” (SYNTEX (U.S.A.) INC., priority 1990, dated 1992).

Data set [1] is described as follows: in vitro. How it is done: (§1) The ability of bradykinin antagonists to resist proteolysis was determined by measuring the half-life of the analogs in plasma using HPLC. Rat blood was collected into heparin-containing tubes and centrifuged at 2000 X g for 10 minutes at 4°C to separate the plasma. Plasma samples were supplemented with bradykinin analogs (60 µM) and incubated at 37°C. At various times during incubation, an aliquot was removed and the reaction was stopped with 10% trifluoroacetic acid (TFA). The reaction mixture was applied to a 1 mL C₁₈ solid-phase extraction column (Baker) preconditioned with methanol and 10% TEA in H₂O. The analog was eluted with 3 x 100 µl of 15% acetonitrile (CH₃CN), 85% H₂O containing 0.2% TFA. The eluent was dried in a Speed-Vac concentrator (Savant) and redissolved in 300 µL of mobile phase consisting of various proportions of CH₃CN and H₂O containing 0.2% TEA depending on the analog. The sample was injected onto a Pecosphere® (Perkin-Elmer) 3 µm C₁₈ cartridge column (3.3 x 0.46 cm) and eluted with mobile phase at a flow rate of 1 ml/min using a Waters HPLC system. The analog was monitored by uv absorption at 210 nm and the results analyzed with a Hewlett-Packard integrator. Peak height was used to quantitate the amount of analog present in the sample. Plasma degradation followed first-order kinetics and the t1/2 (the time required for half the sample to be degraded) was determined graphically from a plot of log % analog remaining vs. incubation time.

Data set [2] in a line: in vitro. As for the experimental part:
as §1
This is another data set of the same source.

Data set [3] relates to Bradykinin-induced Hypotension. Put plainly: Protection against bradykinin-induced hypotension in rats. It counts as in vivo, Male Sprague-Dawley rats. Particulars: co-administration (50-200 nmol/kg) with bradykinin (0.4 µg/kg) via carotid cannula, anesthetized rats. How it is done: Male Sprague-Dawley rats (200-300 g, Charles River) were anesthetized with 40 mg/kg ip sodium pentobarbital. The left femoral artery and vein were fitted with polyethylene cannulas (Intramedic PE-50) and the left carotid artery was fitted with a PE-20 cannula. […] The femoral arterial cannula was connected to a blood pressure transducer (Statham) and Beckman dynograph for recording systolic and diastolic pressure. The femoral venous cannula was used to administer maintenance anesthesia. […] All cannulas were filled with heparinized (40 U/mL) saline to maintain patency. Rats were placed on a 37°C water blanket and allowed to reach a stable anesthetic plane characterized by a mean arterial blood pressure of ≧90 mm Hg and a positive response to a toe pinch.

The target in a further data set is T1, Bradykinin Receptor (Cavia porcellus, UniProt O70526).
T1 construct: A 5 cm section of the distal ileum was removed, rinsed in cold saline and homogenized; from tissue; host or cells: guinea pig distal ileum, crude membrane pellet
T1 sequence (O70526 1-372): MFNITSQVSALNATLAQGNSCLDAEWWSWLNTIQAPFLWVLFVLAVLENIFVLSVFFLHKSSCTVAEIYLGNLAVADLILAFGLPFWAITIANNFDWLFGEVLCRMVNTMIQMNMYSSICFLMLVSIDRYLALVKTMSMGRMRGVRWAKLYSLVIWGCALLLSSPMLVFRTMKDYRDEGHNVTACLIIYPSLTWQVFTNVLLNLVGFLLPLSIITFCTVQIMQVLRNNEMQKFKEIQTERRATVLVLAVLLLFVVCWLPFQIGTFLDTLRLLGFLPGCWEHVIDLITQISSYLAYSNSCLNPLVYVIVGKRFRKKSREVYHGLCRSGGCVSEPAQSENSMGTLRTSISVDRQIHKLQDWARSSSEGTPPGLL
Put plainly: Guinea pig ileum bradykinin receptor binding assay. The following applies: concentration of analog that reduced the binding of 100 pM [³H]bradykinin by 50%; guinea pig ileum membrane preparation; read-out: IC₅₀. How it is done: The bradykinin analogs were assayed using a cell-free membrane receptor binding assay described by Innis et al Proc. Natl. Acad. Sci. USA 1981, 78:2630. Male Hartley guinea pigs (400-500g, Charles River) were euthanized by CO₂ asphyxiation. A 5 cm section of the distal ileum was removed, rinsed in cold saline and homogenized in 20 volumes of cold 20 mM TES buffer, pH 6.8, 1mM 1,10-phenanthroline using a Tissumizer (Tekmar) at 75% maximum speed for 12 seconds. The homogenate was centrifuged at 15,000 X g for 25 minutes at 4°C. The crude membrane pellet was washed once in 20 volumes of fresh homogenizing buffer and resuspended in assay buffer (25 mM TES buffer, pH 6.8, 1 mM dithiothreitol, 1 mM 1,10-phenanthroline, 1 µM captopril, 0.014% bacitracin and 0.1% bovine serum albumin) at 100 mL buffer per gram issue. The membrane preparation was quick-frozen in liquid N₂ and stored at -80°C.
The reaction mixture for the receptor binding assay contained bradykinin analog (1-1000 nM), 100 pM [³H]bradykinin (88 Ci/mmol) and 200 µl membrane preparation in a total volume of 500 µl assay buffer. Reactions were incubated at room temperature for 90 minutes and membrane-bound [³H]bradykinin was isolated by filtration through PEI-coated glass fiber filters. The filters were dried and counted for radioactivity in a liquid scintillation counter. Specific binding was calcuated by subtracting the nonspecific binding (determined in a parallel set of assays in the presence of 1 µM unlabeled bradykinin) from the total radioactivity bound to the filters. All incubations were performed in duplicate and the data expressed as % reduction in the specific binding of [³H]bradykinin. The IC₅₀ (the concentration of analog that reduced the binding of 100 pM [³H]bradykinin by 50%) was determined graphically from a plot of % reduction vs. log concentration.

For data set [4], the system named is rat peritoneal mast cells. The following applies: rat mixed peritoneal cells, 15 minutes, 35°C.
Procedure: Mixed peritoneal cells were recovered from 3 or 4 male Sprague-Dawley rats (350 g, Iffa-Credo, France) by intraperitoneal injection of 10 mL of 0.9% NaCl (containing 50 µg/mL heparin). After gentle massage of the abdominal cavity for 1 minute, the peritoneal cells were removed, pooled and centrifuged for 5 minutes at 300 g. After three rinses in Krebs-Ringer Buffer (KRB: 141.9 mM NaCl; 4.7 mM KCl; 1.0 mM CaCl₂, 11.2 mM MgSO₄; 2.5 mM Na₂HPO₄; 0.6 mM KH₂PO₄), the cells were counted under a microscope and diluted in the appropriate volume of KRB to achieve a cell density of about 2 x 10⁶ cells per mL. Aliquots of 0.5 mL were prewarmed with 0.4 mL Ca⁺⁺-free KRB for 5 minutes at 35°C and 0.1 mL of the appropriate solution of the drugs tested was added or its vehicle alone. 15 minutes later, the reaction was stopped by the addition of 2.5 mL ice-cold KRB and chilling on ice.
After centrifugation of the cell suspension, the histamine content of the supernatant was assayed fluorimetrically by the method of Shore et al., (Immunol. 1959, 127:182) omitting the extraction procedure (Excitation 365 nm; Emission 450 nm).
The total histamine content of the cell suspension was determined after sonication (2 minutes - 5 second pulse frequency).
The spontaneous histamine release was subtracted from all the values measured.
For data set [5] the following is noted: Ferreira et al. 1967; cited from earlier work.

Values after ≈ are worked out from the molar mass of the structure shown. Where a SMILES comes first, the peptide text is derived from it. Where no end group is shown, it is not given here. [ ]: non-standard residue; d: D form. d(hArg)(Nω,Nω'-(CH2CF3)2) = N[C@H](CCCCNC(=NCC(F)(F)F)NCC(F)(F)F)C(=O)O; Oic = O=C(O)[C@@H]1C[C@@H]2CCCC[C@@H]2N1; Arg(Me2s) = CN=C(NC)NCCC[C@H](N)C(=O)O; Arg(Et) = CCNC(=N)NCCC[C@H](N)C(=O)O; Arg(Me) = CNC(=N)NCCC[C@H](N)C(=O)O; Hyp = O=C(O)[C@@H]1C[C@@H](O)CN1; dTic = O=C(O)[C@H]1Cc2ccccc2CN1; 2Thi = N[C@@H](Cc1cccs1)C(=O)O Bounds are passed on as bounds.

By half-life is commonly meant the time needed for the level to fall by half in the phase considered. Low values mean fast loss, high ones slow loss.

Turning to `CN=C(N)NCCC[C@H](NC(=O)[C@H](Cc1ccccc1)NC(=O)[C@@H](Cc1ccccc1)NC(=O)[C@H](CO)NC(=O)[C@H](Cc1ccccc1)NC(=O)CNC(=O)[C@@H]1C[C@@H](O)CN1C(=O)[C@@H]1CCCN1C(=O)[C@H](CCCNC(=N)N)NC(=O)[C@H](N)CCCCNC(=NCC(F)(F)F)NCC(F)(F)F)C(=O)O` [Compound 1, D-hArg(CH₂CF₃)₂-Arg-Pro-Hyp-Gly-Phe-Ser-D-Phe-Phe-Arg(Me)], the half-life at 60 µM in “in vitro [1]” (human, plasma) was over 120 min; in the data set “in vitro [2]” (mouse, plasma), over 120 min.
In the case of `CN=C(N)NCCC[C@H](NC(=O)[C@H](Cc1ccc(OC)cc1)NC(=O)[C@@H](Cc1ccccc1)NC(=O)[C@H](CO)NC(=O)[C@H](Cc1ccccc1)NC(=O)CNC(=O)[C@@H]1C[C@@H](O)CN1C(=O)[C@@H]1CCCN1C(=O)[C@H](CCCNC(=N)N)NC(=O)[C@H](N)CCCCNC(=NCC(F)(F)F)NCC(F)(F)F)C(=O)O` [Compound 4, D-hArg(CH₂CF₃)₂-Arg-Pro-Hyp-Gly-Phe-Ser-D-Phe-Tyr(Me)-Arg(Me)] (H-[d(hArg)(Nω,Nω'-(CH2CF3)2)]RP[Hyp]GFS[dF]Y(Me)[Arg(Me)]-OH), the “protection against bradykinin-induced hypotension (drop in blood pressure)” value in data set [3] is listed as “reduced or prevented the drop in blood pressure”.
`CN=C(N)NCCC[C@H](NC(=O)[C@@H]1CCCN1C(=O)[C@H]1Cc2ccccc2CN1C(=O)[C@H](CO)NC(=O)[C@H](Cc1ccccc1)NC(=O)CNC(=O)[C@@H]1C[C@@H](O)CN1C(=O)[C@@H]1CCCN1C(=O)[C@H](CCCNC(N)=NC)NC(=O)[C@H](N)CCCCNC(=NCC(F)(F)F)NCC(F)(F)F)C(=O)O` [Compound 21, D-hArg(CH₂CF₃)₂-Arg(Me)-Pro-Hyp-Gly-Phe-Ser-D-Tic-Pro-Arg(Me)] (H-[d(hArg)(Nω,Nω'-(CH2CF3)2)][Arg(Me)]P[Hyp]GFS[dTic]P[Arg(Me)]-OH): the IC50 at Bradykinin Receptor was found to be 2.2 nM.
As for `CN=C(N)NCCC[C@H](NC(=O)[C@@H]1C[C@@H]2CCCC[C@@H]2N1C(=O)[C@H]1Cc2ccccc2CN1C(=O)[C@H](CO)NC(=O)[C@H](Cc1cccs1)NC(=O)CNC(=O)[C@@H]1C[C@@H](O)CN1C(=O)[C@@H]1CCCN1C(=O)[C@H](CCCNC(N)=NC)NC(=O)[C@H](N)CCCCNC(=NCC(F)(F)F)NCC(F)(F)F)C(=O)O` [Compound 22, D-hArg(CH₂CF₃)₂-Arg(Me)-Pro-Hyp-Gly-Thi-Ser-D-Tic-Oic-Arg(Me)], at Bradykinin Receptor, the IC50 amounted to 0.05 nM. The half-life at 60 µM in “in vitro [1]” (human, plasma) is over 120 min; in the data set “in vitro [2]” (mouse, plasma) it was over 120 min.
Turning to `CN=C(N)NCCC[C@H](NC(=O)[C@H](Cc1ccc(OC)cc1)NC(=O)[C@@H](Cc1ccccc1)NC(=O)[C@H](CO)NC(=O)[C@H](Cc1ccccc1)NC(=O)CNC(=O)[C@@H]1C[C@@H](O)CN1C(=O)[C@@H]1CCCN1C(=O)[C@H](CCCNC(=N)N)NC(=O)[C@H](N)CCCNC(=N)N)C(=O)O` [Compound 74, D-Arg-Arg-Pro-Hyp-Gly-Phe-Ser-D-Phe-Tyr(Me)-Arg(Me)] (H-[dR]RP[Hyp]GFS[dF]Y(Me)[Arg(Me)]-OH), the IC50 on Bradykinin Receptor was found to be 30 nM. Also, the half-life at 60 µM in the data set “in vitro [1]” (human, plasma) was over 120 min; in the data set “in vitro [2]” (mouse, plasma) it was over 120 min.
Consider `N=C(N)NCCC[C@H](NC(=O)[C@@H]1CCCN1C(=O)[C@H]1Cc2ccccc2CN1C(=O)[C@H](CO)NC(=O)[C@H](Cc1cccs1)NC(=O)CNC(=O)[C@@H]1C[C@@H](O)CN1C(=O)[C@@H]1CCCN1C(=O)[C@H](CCCNC(=N)N)NC(=O)[C@H](N)CCCCNC(=NCC(F)(F)F)NCC(F)(F)F)C(=O)O` [Compound 75, D-hArg(CH₂CF₃)₂-Arg-Pro-Hyp-Gly-Thi-Ser-D-Tic-Pro-Arg] (H-[d(hArg)(Nω,Nω'-(CH2CF3)2)]RP[Hyp]G[2Thi]S[dTic]PR-OH), for which the IC50 at Bradykinin Receptor was 1 nM.
Still for that read-out and setting: the result for `CN=C(NC)NCCC[C@H](NC(=O)[C@@H]1C[C@@H]2CCCC[C@@H]2N1C(=O)[C@H]1Cc2ccccc2CN1C(=O)[C@H](CO)NC(=O)[C@H](Cc1cccs1)NC(=O)CNC(=O)[C@@H]1C[C@@H](O)CN1C(=O)[C@@H]1CCCN1C(=O)[C@H](CCCNC(=NC)NC)NC(=O)[C@H](N)CCCCNC(=NCC(F)(F)F)NCC(F)(F)F)C(=O)O` [Compound 81, D-hArg(CH₂CF₃)₂-Arg(Me₂)-Pro-Hyp-Gly-Thi-Ser-D-Tic-Oic-Arg(Me₂)] reads 0.15 nM.
For `CN=C(NC)NCCC[C@H](NC(=O)[C@@H]1C[C@@H]2CCCC[C@@H]2N1C(=O)[C@H]1Cc2ccccc2CN1C(=O)[C@H](CO)NC(=O)[C@H](Cc1ccccc1)NC(=O)CNC(=O)[C@@H]1C[C@@H](O)CN1C(=O)[C@@H]1CCCN1C(=O)[C@H](CCCNC(=NC)NC)NC(=O)[C@H](N)CCCCNC(=NCC(F)(F)F)NCC(F)(F)F)C(=O)O` [Compound 89, D-hArg(CH₂CF₃)₂-Arg(Me₂)-Pro-Hyp-Gly-Phe-Ser-D-Tic-Oic-Arg(Me₂)] (H-[d(hArg)(Nω,Nω'-(CH2CF3)2)][Arg(Me2s)]P[Hyp]GFS[dTic][Oic][Arg(Me2s)]-OH), the IC50 on Bradykinin Receptor stood at 0.07 nM. The “EC50 (histamine release)” value in data set [4] is listed as 312 µg/mL (≈ 204 µM).
For `CCN=C(N)NCCC[C@H](NC(=O)[C@H](N)CCCCNC(=NCC(F)(F)F)NCC(F)(F)F)C(=O)N1CCC[C@H]1C(=O)N1C[C@H](O)C[C@H]1C(=O)NCC(=O)N[C@@H](Cc1ccccc1)C(=O)N[C@@H](CO)C(=O)N1Cc2ccccc2C[C@@H]1C(=O)N1[C@H](C(=O)N[C@@H](CCCNC(=NC)NC)C(=O)O)C[C@@H]2CCCC[C@@H]21` [Compound 90, D-hArg(CH₂CF₃)₂-Arg(Et)-Pro-Hyp-Gly-Phe-Ser-D-Tic-Oic-Arg(Me₂)] (H-[d(hArg)(Nω,Nω'-(CH2CF3)2)][Arg(Et)]P[Hyp]GFS[dTic][Oic][Arg(Me2s)]-OH), the IC50 on Bradykinin Receptor amounted to 0.04 nM. Besides, in data set [4], the “EC50 (histamine release)” value was found to be 216 µg/mL (≈ 141 µM).
For the molecule `CN=C(N)NCCC[C@H](NC(=O)[C@@H]1C[C@@H]2CCCC[C@@H]2N1C(=O)[C@H]1Cc2ccccc2CN1C(=O)[C@H](CO)NC(=O)[C@H](Cc1ccccc1)NC(=O)CNC(=O)[C@@H]1C[C@@H](O)CN1C(=O)[C@@H]1CCCN1C(=O)[C@H](CCCNC(N)=NC)NC(=O)[C@H](N)CCCCNC(=NCC(F)(F)F)NCC(F)(F)F)C(=O)O` [Compound 91, D-hArg(CH₂CF₃)₂-Arg(Me)-Pro-Hyp-Gly-Phe-Ser-D-Tic-Oic-Arg(Me)] (H-[d(hArg)(Nω,Nω'-(CH2CF3)2)][Arg(Me)]P[Hyp]GFS[dTic][Oic][Arg(Me)]-OH), the IC50 on Bradykinin Receptor stood at 0.05 nM. Also, the half-life at 60 µM in “in vitro [1]” (human, plasma) was over 120 min; in “in vitro [2]” (mouse, plasma), over 120 min.
For RPPGFSPFR [bradykinin], in data set [5], the “half-life in the systemic circulation” value was “less than 30 seconds”. The half-life at 60 µM in “in vitro [1]” is under 5 min; in the data set “in vitro [2]”, under 5 min; in the data set “in vitro [2]” (rat, plasma) it was under 5 min.
